Assay results reported in patent US10781227B2, “Application of metal complexes in anti-tumor and anti-bacterial therapy” (biolitec Unternehmensbeteiligungs II AG, priority 2018, dated 2020).

Key:
[1] = tested on: HT29, L929, A431, A253, CAL-27 and J774A.1 cell lines; test: Cell test of photodynamic activity and light independent toxicity, XTT cell viability assay; format: cell-based, human, mouse; details: for activity against the cell lines under irradiation (phototoxicity): 2 or 10 μM photosensitizer, 24 h incubation, white light 50 J/cm^2, XTT after 24 h; for activity against the cell lines without light / toxicity against tumor cells in the absence of light: 2 or 10 μM; for activity against the cell lines without light: no irradiation (dark toxicity); for toxicity against tumor cells in the absence of light: no irradiation
Description: The photosensitizing activity was determined in the following cell lines: • HT29 (human colon adenocarcinoma cell line) • L929 (mouse fibroblast cell line) • A431 (human epidermoid carcinoma cell line) • A253 (submaxillary salivary gland, epidermoid cell line) • CAL-27 (human tongue squamous cell carcinoma cell line) • J774A.1 (Mouse BALB/c monocyte macrophage). The cell lines were grown in DMEM (PAA Laboratories GmbH) supplemented with 10% heat-inactivated fetal calf serum (FCS, PAA Laboratories GmbH), 1% penicillin (10000 IU) and streptomycin (10000 μg/ml, PAA Laboratories GmbH). Cells were kept as a monolayer culture in a humidified incubator (5% CO2 in air at 37° C.). A photosensitizer stock solution (2 mM) was performed in DMSO and was kept in the dark at 4° C. […] Cells were incubated with fresh medium (DMEM without phenol red) containing 10% FCS with 2 or 10 μM of the photosensitizer for 24 h before light exposure. Before photosensitization, cells were washed, cell culture medium was exchanged with DMEM without phenol red and 10% FCS, then irradiated at room temperature with white light source at a fixed fluence rate of about 100 mW/cm^2 (50 J/cm^2). Following irradiation, cells were incubated in a humidified incubator (5% CO2 in air at 37° C.) for 24 h until cell viability assay. […] Solution was stored in the dark at −20° C. until use. A sterile solution containing PMS ([…], Applichem GmbH) was needed as an activation reagent for the XTT. 0.383 mg PMS was dissolved in 1 ml PBS-Buffer. The solution should be stored frozen and should not be exposed to light. The XTT reagent solution was thawed in a 37° C. water bath and the activation solution (PMS) was added immediately prior to use. To prepare a reaction solution sufficient for one micro plate (96 wells), 0.1 ml activation solution (PMS) was given to 5 ml XTT reagent. The medium in the micro plate was exchanged with RPMI without phenol red and 10% FCS (100 μl) prior adding 50 μl XTT reaction solution per well. The micro plate was incubated for 2-3 hours at 37° C. and 5% CO2 until an orange dye was formed. The micro plate has been shaken gently to evenly distribute the dye in the wells. The absorbance of the samples was measured with a spectrophotometer (Infinite 200, Tecan Group Ltd.) at a wavelength of 490 nm.

[2] = tested on: Staphylococcus aureus DSM 11729; test: Antibacterial testing, colony-forming units after incubation with or without white light; format: cell-based; details: 100, 10 or 1 μM; for activity against S. aureus under irradiation: 30 min incubation, white light about 100 J/cm^2, CFU/ml; for activity/toxicity against S. aureus without light: no illumination, CFU/ml
Description: (§1) The organisms studied were Staphylococcus aureus DSM 11729, Gram-positive; Acinetobacter baumannii DSM30007, and Klebsiella pneumoniae DSM30104, both Gram-negative. Cultures cells are suspended in sterile phosphate-buffered saline (PBS) or sterile PBS supplemented with 10% sterile horse blood serum. The bacterial suspensions are placed into sterile black well plates with clear bottoms. Concentrations of photosensitizer used in the study were as follows: 100 μM, 10 μM and 1 μM. After an incubation time period of 30 minutes, the samples are exposed to white light, with a power density and irradiation time resulting in an energy fluency of about 100 J/cm^2. Control plates contained no photosensitizer and are not exposed to laser light. The control samples for dark toxicity are only exposed to photosensitizer without any illumination. After irradiation, the samples are removed and suspended again in the culture media. The numbers of colony-forming units (CFU/ml) are enumerated after an adequate incubation time period.

[3] = tested on: Klebsiella pneumoniae DSM30104; test: as above; format: cell-based; details: 100, 10 or 1 μM
Description: as §1

[4] = tested on: Staphylococcus aureus DSM 11729; Acinetobacter baumannii DSM30007; Klebsiella pneumoniae DSM30104; test: Antibacterial testing, bacteria not specified; format: cell-based; details: PBS supplemented with 10% sterile horse blood serum
Description: as §1

Row | Substance | activity against the cell lines under irradiation (phototoxicity) [1] | activity against the cell lines without light [1] | activity against S. aureus under irradiation [2] | activity/toxicity against S. aureus without light [2] | activity against K. pneumoniae under irradiation ([3]; 30 min incubation, white light about 100 J/cm^2, CFU/ml) | activity against K. pneumoniae without light ([3]; no illumination, CFU/ml) | antibacterial activity in the presence of complex media (serum addition) [4] | toxicity against tumor cells in the absence of light [1]
1 | Tris[5-(4-β-D-thiogalactosyl)-2,3,5,6-tetrafluorophenyl)dipyrrinato gallium(III) [Example 4.5] | high activity | no activity | high activity | nearly no activity |  |  |  | 
2 | Tris[5-(4-β-D-thioglucosyl)-2,3,5,6-tetrafluorophenyl)dipyrrinato gallium(III) [Example 4.3] | high activity | no activity | high activity | nearly no activity | high activity | nearly no activity | antibacterial activity is also observed | 
3 | [bis(2,2′-bipyridyl(4-(hexyloxy)-2,3,5,6-tetrafluorophenyl)-dipyrrinato)]ruthenium(II) chloride [Example 4.6] |  |  |  |  |  |  |  | high toxicity
4 | [bis(2,2′-bipyridyl(4-(prop-2-enylamino)-2,3,5,6-tetrafluorophenyl)-dipyrrinato)]ruthenium(II) chloride [Example 4.7] |  |  |  | high toxicity |  |  | antibacterial activity is also observed | high toxicity
5 | [bis(2,2′-bipyridyl(4-(prop-2-enyloxy)-2,3,5,6-tetrafluorophenyl)-dipyrrinato)]ruthenium(II) chloride [Example 4.8] |  |  |  | high toxicity |  |  |  | high toxicity
